22 compounds from ChEMBL document CHEMBL6096733, “Structure-Based Virtual Screening Identifies 2-Arylthiazole-4-Carboxylic Acids as a Novel Class of Nanomolar Affinity Ligands for the CaMKIIα Hub Domain” (J Med Chem, 2025) can be followed below.

Structures are written as SMILES. Where only a bound is given, the exact number is not on record here.

In assay [1] the target is T1, Calcium/calmodulin-dependent protein kinase type II subunit alpha (Rattus norvegicus, UniProt P11275). In words: Inhibition of […] binding to CaMKIIalpha in rat brain cortical membrane assessed as inhibition constant incubated for 1 hrs by TopCount NXT microplate scintillation counter analysis. In kind it is cell membranes, Cortex.
The target in assay [2] is T1, Calcium/calmodulin-dependent protein kinase type II subunit alpha. In words: Inhibition of [3H]NCS-382 binding to CaMKIIalpha in rat brain cortical membrane assessed as inhibition constant incubated for 1 hrs by TopCount NXT microplate scintillation counter analysis. In kind it is cell membranes, Cortex.

T1 sequence (P11275 whole entry): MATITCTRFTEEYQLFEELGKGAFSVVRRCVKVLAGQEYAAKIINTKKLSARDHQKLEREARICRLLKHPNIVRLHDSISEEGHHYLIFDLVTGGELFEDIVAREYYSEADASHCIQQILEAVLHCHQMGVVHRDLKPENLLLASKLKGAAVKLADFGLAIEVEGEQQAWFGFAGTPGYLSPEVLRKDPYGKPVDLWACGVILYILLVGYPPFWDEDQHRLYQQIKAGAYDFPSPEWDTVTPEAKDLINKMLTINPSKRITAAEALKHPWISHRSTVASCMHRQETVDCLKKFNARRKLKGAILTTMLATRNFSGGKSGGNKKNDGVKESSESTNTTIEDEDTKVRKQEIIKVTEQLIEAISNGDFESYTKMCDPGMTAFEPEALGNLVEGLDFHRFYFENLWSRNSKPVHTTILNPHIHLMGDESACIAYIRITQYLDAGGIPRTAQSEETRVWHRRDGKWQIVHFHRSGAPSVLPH

As for `O=C(O)c1csc(-c2ccc(-c3ccccc3)cc2)n1`, in assay [1] (read-out: Ki), the Ki was determined as 5 µM.
For `COc1ccccc1-c1nc(C(=O)O)cs1`, in assay [2] (read-out: Ki), the Ki worked out at 3.1 µM.
For `Cc1ccc(-c2nc(CC(=O)O)cs2)cc1`, the Ki in assay [1] (read-out: Ki) was determined as 2.9 µM.
Same read-out and setting: with `O=C(O)c1csc(-c2c(C(F)(F)F)cccc2C(F)(F)F)n1` the figure was more than 10 µM.
`O=C(Nc1nc(C(=O)O)cs1)c1ccccc1`: in assay [2] (read-out: Ki), the Ki is more than 100 µM.
On to `O=C(O)c1csc(CCc2ccccc2)n1`, for which, in assay [1] (read-out: Ki), the Ki stood at 2.6 µM.
Still for that read-out and setting: to `O=C(O)Cc1csc(-c2ccccc2Cl)n1` belongs 2 µM; to `O=C(O)Cc1csc(Cc2ccccc2)n1`, more than 10 µM; to `O=C(O)c1csc(-c2ccccc2)n1`, 11.5 µM.
Consider `O=C(O)c1csc(-c2ccccc2I)n1`, for which, in assay [2] (read-out: Ki), the Ki was determined as 0.16 µM.
Regarding `OC1(c2nc(-c3c(Cl)cccc3Cl)cs2)COC1`, the Ki in assay [1] (read-out: Ki) was more than 100 µM.
Still for that read-out and setting: with `O=C(O)c1cnc(-c2ccccc2)s1` the figure was more than 100 µM; with `COc1cccc(-c2nc(C(=O)O)cs2)c1`, 9.9 µM.
In the case of `O=C(O)c1csc(-c2ccccc2Br)n1`, the Ki is 0.18 µM in assay [2] (read-out: Ki) and 0.158 µM in assay [2] (read-out: pKi (converted)).
As for `O=C(O)c1csc(-c2cccc3ccccc23)n1`, the Ki in assay [1] (read-out: Ki) was 0.22 µM.
Turning to `O=C(O)c1csc(-c2ccc(C(F)(F)F)cc2)n1`, the Ki in assay [2] (read-out: Ki) is 10.3 µM.
As to `CCc1ccc(-c2nc(C(=O)O)cs2)cc1`, the Ki in assay [1] (read-out: Ki) turned out to be 5.4 µM.
On the same count and under the same terms, to `O=C(O)c1csc(-c2cccc(O)c2)n1` belongs 2.7 µM.
Consider `Cc1ccc(-c2nc(C(=O)O)cs2)cc1`, for which the Ki in assay [1] (read-out: Ki) is 2.3 µM; in assay [1] (read-out: pKi (converted)) it was 12.6 µM.
In the case of `O=C(O)Cc1csc(-c2c(Cl)cccc2Cl)n1`, the Ki in assay [1] (read-out: Ki) was more than 10 µM.
As for `O=C(O)c1csc(-c2ccccc2O)n1`, the Ki in assay [2] (read-out: Ki) amounted to 8 µM.
For `O=C(O)c1csc(-c2c(I)cccc2I)n1`, in assay [1] (read-out: Ki), the Ki stood at 0.16 µM.
